Earlier results in paper PMC11672368 (Therapeutic Advances in Medical Oncology, 2024).

How the values were obtained:
[1] = depot injection

Triptorelin
elimination half-life (t1/2): 5 h

degarelix
incidence of injection-site reactions [1]: ~40%

leuprolide acetate
achievement rate of serum total testosterone 0.2 ng/mL (serum testosterone): 57%
